Series [1] addresses T1, SERT (Rattus norvegicus, UniProt P31652).
T1 construct: [3H]-paroxetine, rat cerebral cortex; from tissue; host or cells: rat cerebral cortex (membranes / crude synaptosomes)
Kind of series: biochemical. The series is classed as binding. The following applies: for potency ratio among SERT, NET, and H3: ratio of binding Ki values for SERT.

Series [2] has as its target T2, NET (Rattus norvegicus, UniProt Q63380). Put plainly: biochemical. The following applies: Receptor Affinity Ki ± SEM NET, rat hippocampal membrane, [3H]nisoxetine; means ± SEM of three experiments.
The target of series [3] is T2, NET. Put plainly: Monoamine uptake transporter assay, [3H]NE uptake by NET. The series is classed as biochemical. The following applies: 10 μM, n = 3.
Series [4] deals with adrenergic α1 receptor. Kind of series: Adrenergic α1 receptor binding assay ([3H]prazosin). Particulars: rat cerebral cortex, means ± SEM of three experiments, read-out: Receptor Affinity Ki ± SEM α1.
The target in series [5] is T3, hERG potassium channel (Homo sapiens, UniProt Q12809).
T3 construct: expressed in transfected cells; host or cells: HEK 293
Put plainly: hERG whole-cell patch clamp in HEK 293 cells. The series is classed as cell-based.

For series [6], the target named is recombinant hH3R (Homo sapiens, UniProt Q9Y5N1). Kind of series: H3 receptor intrinsic activity assay ([35S]GTPγS binding). It is filed as biochemical. Particulars: 10 μM, n = 3. A general note: GTPγS is a poorly hydrolysed GTP analogue; its binding reports G protein activation.
Setting [7] is: rat cerebral cortex, [3H]-paroxetine, means ± SEM of three experiments, read-out: Receptor Affinity Ki ± SEM SERT.

Read-outs that look alike come from different tables or passages of the source.

T2 sequence (Q63380 1-617): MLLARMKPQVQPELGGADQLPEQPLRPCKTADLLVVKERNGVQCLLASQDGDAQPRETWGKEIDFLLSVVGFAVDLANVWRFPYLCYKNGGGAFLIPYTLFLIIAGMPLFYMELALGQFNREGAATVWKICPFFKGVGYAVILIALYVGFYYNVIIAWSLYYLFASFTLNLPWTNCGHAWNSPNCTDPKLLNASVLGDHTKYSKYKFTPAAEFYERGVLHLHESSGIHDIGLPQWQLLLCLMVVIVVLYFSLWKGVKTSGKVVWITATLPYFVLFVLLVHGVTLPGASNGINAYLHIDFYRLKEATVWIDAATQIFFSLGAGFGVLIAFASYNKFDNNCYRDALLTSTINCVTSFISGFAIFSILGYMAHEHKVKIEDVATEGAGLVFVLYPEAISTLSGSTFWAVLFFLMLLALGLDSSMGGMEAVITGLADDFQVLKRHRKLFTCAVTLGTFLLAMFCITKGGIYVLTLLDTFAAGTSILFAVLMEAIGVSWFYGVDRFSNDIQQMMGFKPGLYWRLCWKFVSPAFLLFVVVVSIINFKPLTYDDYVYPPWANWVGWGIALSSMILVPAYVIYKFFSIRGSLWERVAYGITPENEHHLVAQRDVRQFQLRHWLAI
T1 sequence (P31652 whole entry): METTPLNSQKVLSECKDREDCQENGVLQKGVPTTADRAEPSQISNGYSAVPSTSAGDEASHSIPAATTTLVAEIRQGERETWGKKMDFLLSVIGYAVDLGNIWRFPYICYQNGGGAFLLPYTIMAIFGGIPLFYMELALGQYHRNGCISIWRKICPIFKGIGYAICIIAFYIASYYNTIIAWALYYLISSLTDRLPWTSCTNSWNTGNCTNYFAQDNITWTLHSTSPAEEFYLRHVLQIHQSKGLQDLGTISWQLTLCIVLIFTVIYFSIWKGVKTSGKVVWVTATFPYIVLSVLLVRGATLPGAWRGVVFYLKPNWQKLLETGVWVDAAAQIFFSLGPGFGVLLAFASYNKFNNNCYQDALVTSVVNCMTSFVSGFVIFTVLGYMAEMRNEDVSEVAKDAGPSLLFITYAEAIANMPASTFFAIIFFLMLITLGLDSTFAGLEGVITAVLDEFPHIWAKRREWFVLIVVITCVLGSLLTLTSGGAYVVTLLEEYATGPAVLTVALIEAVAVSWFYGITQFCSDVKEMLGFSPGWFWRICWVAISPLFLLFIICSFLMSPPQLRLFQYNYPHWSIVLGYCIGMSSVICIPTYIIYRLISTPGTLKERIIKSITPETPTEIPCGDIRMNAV
T3 sequence (Q12809 whole entry): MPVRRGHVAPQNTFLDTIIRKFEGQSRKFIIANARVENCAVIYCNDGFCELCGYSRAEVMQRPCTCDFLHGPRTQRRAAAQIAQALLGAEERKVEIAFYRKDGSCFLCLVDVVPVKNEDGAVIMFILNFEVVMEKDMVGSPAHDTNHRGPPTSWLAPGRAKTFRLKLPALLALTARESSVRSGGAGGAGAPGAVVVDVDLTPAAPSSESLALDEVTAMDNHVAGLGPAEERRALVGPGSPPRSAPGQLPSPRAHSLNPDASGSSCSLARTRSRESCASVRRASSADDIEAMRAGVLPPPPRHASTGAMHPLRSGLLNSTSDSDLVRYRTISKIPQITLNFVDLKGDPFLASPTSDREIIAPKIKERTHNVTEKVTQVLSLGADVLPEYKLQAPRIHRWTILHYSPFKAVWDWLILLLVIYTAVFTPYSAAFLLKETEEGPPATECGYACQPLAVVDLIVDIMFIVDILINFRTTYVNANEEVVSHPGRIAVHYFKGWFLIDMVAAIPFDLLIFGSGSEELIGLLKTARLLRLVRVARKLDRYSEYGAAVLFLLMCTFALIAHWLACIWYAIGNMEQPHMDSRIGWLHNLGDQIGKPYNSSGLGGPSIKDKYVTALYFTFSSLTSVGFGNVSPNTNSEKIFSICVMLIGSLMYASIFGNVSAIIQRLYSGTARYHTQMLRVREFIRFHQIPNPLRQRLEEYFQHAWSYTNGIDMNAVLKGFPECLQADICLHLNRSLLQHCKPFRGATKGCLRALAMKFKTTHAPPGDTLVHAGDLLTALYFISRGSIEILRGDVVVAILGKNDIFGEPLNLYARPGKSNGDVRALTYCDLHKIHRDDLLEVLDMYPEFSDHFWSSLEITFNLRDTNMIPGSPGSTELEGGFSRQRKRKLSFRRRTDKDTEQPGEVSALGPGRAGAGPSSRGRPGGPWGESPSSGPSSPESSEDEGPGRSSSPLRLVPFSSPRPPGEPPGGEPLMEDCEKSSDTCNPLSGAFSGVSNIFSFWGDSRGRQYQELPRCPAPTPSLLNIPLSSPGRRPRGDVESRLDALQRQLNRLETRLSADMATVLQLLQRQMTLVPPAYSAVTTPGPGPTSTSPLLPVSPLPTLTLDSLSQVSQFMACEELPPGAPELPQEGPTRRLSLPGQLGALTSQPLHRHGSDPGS
recombinant hH3R, sequence (Q9Y5N1 whole entry): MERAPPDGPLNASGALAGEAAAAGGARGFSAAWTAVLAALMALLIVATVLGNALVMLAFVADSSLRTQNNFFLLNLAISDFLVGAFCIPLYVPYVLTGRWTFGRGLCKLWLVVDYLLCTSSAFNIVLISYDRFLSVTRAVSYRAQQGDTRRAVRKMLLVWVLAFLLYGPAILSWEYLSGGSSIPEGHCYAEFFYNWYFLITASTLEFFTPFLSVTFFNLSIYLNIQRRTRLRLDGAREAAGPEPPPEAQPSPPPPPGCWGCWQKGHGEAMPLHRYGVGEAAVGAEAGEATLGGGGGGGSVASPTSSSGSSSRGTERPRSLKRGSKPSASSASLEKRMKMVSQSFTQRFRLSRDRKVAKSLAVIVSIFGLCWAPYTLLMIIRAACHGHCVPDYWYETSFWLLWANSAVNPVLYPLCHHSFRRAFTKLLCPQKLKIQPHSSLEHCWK

What is called Ki is the dissociation constant of the complex between target and ligand, obtained from inhibition or displacement. By melting point is commonly meant the temperature of the solid-liquid transition. With `CCN1CCN(CCCOc2ccc(C(CCN(C)C)Oc3cccc4c3OCO4)cc2)CC1.O=C(O)C(=O)O` (stereo not shown) [Compound 11e, 3-(benzo[d][1,3]dioxol-4-yloxy)-3-(4-(3-(4-ethylpiperazin-1-yl)propoxy)phenyl)-N,N-dimethylpropan-1-amine oxalate], the melting point fell in the range of 187 to 189 °C. Also, in series [1] (setting [7]), the Ki worked out at 39.6 ± 3.3 nM. In series [2], this compound yielded a Ki of 66.9 ± 5.1 nM.
For `CN(C)CCC(Oc1cccc2c1OCO2)c1cccc(OCCCN2CCCC2)c1.O=C(O)C(=O)O` (stereo not shown) [Compound 11h, 3-(benzo[d][1,3]dioxol-4-yloxy)-N,N-dimethyl-3-(3-(3-(pyrrolidin-1-yl)propoxy)phenyl)propan-1-amine oxalate], in that order: 104 to 106 °C, 192 ± 18.8 nM and 144 ± 13.5 nM.
As for `CC(C)N1CCN(CCCOc2ccc(C(CCN(C)C)Oc3cccc4c3OCO4)cc2)CC1.O=C(O)C(=O)O` (stereo not shown) [Compound 11f, 3-(benzo[d][1,3]dioxol-4-yloxy)-3-(4-(3-(4-isopropylpiperazin-1-yl)propoxy)phenyl)-N,N-dimethylpropan-1-amine oxalate], the melting point lay in the range of 160 to 162 °C. The inhibitory constant (Ki) in series [1] (setting [7]) came out at 35.7 ± 3.1 nM. For the same compound, the affinity in series [2] corresponds to a Ki of 57.9 ± 6.4 nM.
For `CN(C)CCC(Oc1cccc2c1OCO2)c1ccc(OCCCN2CCOCC2)cc1.O=C(O)C(=O)O` (stereo not shown) [Compound 11c, 3-(benzo[d][1,3]dioxol-4-yloxy)-N,N-dimethyl-3-(4-(3-morpholinopropoxy)phenyl)propan-1-amine oxalate], in that order: 169 to 170 °C, 43.2 ± 3.8 nM and 32.6 ± 2.7 nM.
`CC(C)N1CCN(CCCOc2cccc(C(CCN(C)C)Oc3cccc4c3OCO4)c2)CC1.O=C(O)C(=O)O` (stereo not shown) [Compound 11k, 3-(benzo[d][1,3]dioxol-4-yloxy)-3-(3-(3-(4-isopropylpiperazin-1-yl)propoxy)phenyl)-N,N-dimethylpropan-1-amine oxalate] came in with a melting point of 185 to 186 °C. In addition, in series [1] (setting [7]), the Ki was determined as 163 ± 17.6 nM. For the same compound, in series [2], the affinity, expressed as Ki, was 111 ± 10.3 nM.
A word on the inhibition: it is the relative decrease from the control value, in per cent. Take `CNCCC(Oc1ccccc1OC)c1ccccc1` (stereo not shown) [Nisoxetine, reference compound]: 10 µM produced 99.8 ± 1.9% inhibition in series [3].
For the compound `CN(C)CCC(Oc1cccc2c1OCO2)c1ccc(OCCCN2CC3CCCC3C2)cc1.O=C(O)C(=O)O` (stereo not shown) [Compound 11g, 3-(benzo[d][1,3]dioxol-4-yloxy)-3-(4-(3-(hexahydrocyclopenta[c]pyrrol-2(1H)-yl)propoxy)phenyl)-N,N-dimethylpropan-1-amine oxalate], the melting point lay within 110 to 112 °C. Also, in series [1] (setting [7]), the Ki was 31.3 ± 4 nM. The compound further displayed a Ki in series [2] of 48.2 ± 4.2 nM.
For `CN(C)CCC(Oc1cccc2c1OCO2)c1ccc(OCCCN2CCC(F)CC2)cc1.O=C(O)C(=O)O` (stereo not shown) [Compound 11t, 3-(benzo[d][1,3]dioxol-4-yloxy)-3-(4-(3-(4-fluoropiperidin-1-yl)propoxy)phenyl)-N,N-dimethylpropan-1-amine oxalate], in that order: 134 to 136 °C, 34.2 ± 2.8 nM and 42.5 ± 4.6 nM.
In general, IC50 refers to the concentration needed to halve the response being measured. As to `CN(C)CCC(Oc1cccc2c1OCO2)c1ccc(OCCCN2CCCC2)cc1.O=C(O)C(=O)O` (stereo not shown) [Compound 11a, 3-(benzo[d][1,3]dioxol-4-yloxy)-N,N-dimethyl-3-(4-(3-(pyrrolidin-1-yl)propoxy)phenyl)propan-1-amine oxalate], the melting point is 138 to 140 °C. Also, the Ki in series [1] (setting [7]) is 10.3 ± 0.9 nM. For the same compound, the “potency ratio among SERT, NET, and H3” value in series [1] is < 10 fold. Moreover, the inhibition constant Ki in series [4] worked out at 428 ± 35.3 nM. The same compound came in with an IC50 in series [5] of 819 ± 90.4 nM. In series [2], this compound had a Ki of 19.2 ± 2.3 nM.
`CN(C)CCCOc1ccc(C(CCN(C)C)Oc2cccc3c2OCO3)cc1.O=C(O)C(=O)O` (stereo not shown) [Compound 11l, 3-(benzo[d][1,3]dioxol-4-yloxy)-3-(4-(3-(dimethylamino)propoxy)phenyl)-N,N-dimethylpropan-1-amine oxalate] had a melting point of 121 to 122 °C. In series [1] (setting [7]), the Ki amounted to 17.1 ± 1.6 nM. Moreover, in series [2], the Ki stood at 115 ± 12.3 nM.
For `CN(C)CCC(Oc1cccc2c1OCO2)c1cccc(OCCCN2CCCCC2)c1.O=C(O)C(=O)O` (stereo not shown) [Compound 11i, 3-(benzo[d][1,3]dioxol-4-yloxy)-N,N-dimethyl-3-(3-(3-(piperidin-1-yl)propoxy)phenyl)propan-1-amine oxalate], in that order: 81 to 83 °C, 236 ± 26.1 nM and 105 ± 9.8 nM.
`CC1CCCN(CCCOc2ccc(C(CCN(C)C)Oc3cccc4c3OCO4)cc2)C1.O=C(O)C(=O)O` (stereo not shown) [Compound 11q, 3-(benzo[d][1,3]dioxol-4-yloxy)-N,N-dimethyl-3-(4-(3-(3-methylpiperidin-1-yl)propoxy)phenyl)propan-1-amine oxalate] showed a melting point of 130 to 132 °C. The Ki in series [1] (setting [7]) is 12.1 ± 1.6 nM. Besides, the “potency ratio among SERT, NET, and H3” value in series [1] is < 10 fold. The Ki in series [4] turned out to be 307 ± 28.1 nM. The compound further gave an IC50 in series [5] of 780 ± 68.5 nM. Also, in series [2], affinity was put at a Ki of 20.7 ± 2.1 nM.
`CC1CCCCN1CCCOc1ccc(C(CCN(C)C)Oc2cccc3c2OCO3)cc1.O=C(O)C(=O)O` (stereo not shown) [Compound 11p, 3-(benzo[d][1,3]dioxol-4-yloxy)-N,N-dimethyl-3-(4-(3-(2-methylpiperidin-1-yl)propoxy)phenyl)propan-1-amine oxalate] registered a melting point of 129 to 131 °C. Besides, the Ki in series [1] (setting [7]) was found to be 20.6 ± 1.9 nM. This compound also showed a Ki in series [2] of 35.4 ± 3.2 nM.
For `CN(C)CCC(Oc1cccc2c1OCO2)c1ccc(OCCCN2CCN(C)CC2)cc1.O=C(O)C(=O)O` (stereo not shown) [Compound 11d, 3-(benzo[d][1,3]dioxol-4-yloxy)-N,N-dimethyl-3-(4-(3-(4-methylpiperazin-1-yl)propoxy)phenyl)propan-1-amine oxalate], in that order: 155 to 156 °C, 52.3 ± 2.8 nM and 86.8 ± 9.1 nM.
For `CC1CCN(CCCOc2ccc(C(CCN(C)C)Oc3cccc4c3OCO4)cc2)CC1.O=C(O)C(=O)O` (stereo not shown) [Compound 11r, 3-(benzo[d][1,3]dioxol-4-yloxy)-N,N-dimethyl-3-(4-(3-(4-methylpiperidin-1-yl)propoxy)phenyl)propan-1-amine oxalate], in that order: 126 to 128 °C, 27.1 ± 1.6 nM and 38.3 ± 3.5 nM.
For the compound `Clc1ccc(CCCOCCCN2CCCCC2)cc1` [Pitolisant, reference compound], the Ki in series [1] (Receptor Affinity Ki ± SEM SERT) and in series [2] was > 1000 nM throughout. In addition, in series [6], the inhibition at 10 µM is 99.3 ± 2.5%.
On to `CN(C)CCC(Oc1cccc2c1OCO2)c1ccc(OCCN2CCCCC2)cc1.O=C(O)C(=O)O` (stereo not shown) [Compound 11n, 3-(benzo[d][1,3]dioxol-4-yloxy)-N,N-dimethyl-3-(4-(2-(piperidin-1-yl)ethoxy)phenyl)propan-1-amine oxalate], for which the melting point lay in the range of 116 to 118 °C. In addition, the inhibition constant Ki in series [1] (setting [7]) amounted to 26.1 ± 2.3 nM. In series [2], the affinity corresponds to a Ki of 37.3 ± 4.2 nM.
On to `CN(C)CCC(Oc1cccc2c1OCO2)c1ccc(OCCCCN2CCCCC2)cc1.O=C(O)C(=O)O` (stereo not shown) [Compound 11o, 3-(benzo[d][1,3]dioxol-4-yloxy)-N,N-dimethyl-3-(4-(4-(piperidin-1-yl)butoxy)phenyl)propan-1-amine oxalate], for which the melting point was in the range of 169 to 171 °C. Besides, the inhibitory constant (Ki) in series [1] (setting [7]) was determined as 49.2 ± 4.8 nM. This compound also yielded an inhibition constant Ki in series [2] of 64.6 ± 5.5 nM.
On to `CC1CC(C)CN(CCCOc2ccc(C(CCN(C)C)Oc3cccc4c3OCO4)cc2)C1.O=C(O)C(=O)O` (stereo not shown) [Compound 11s, 3-(benzo[d][1,3]dioxol-4-yloxy)-3-(4-(3-(3,5-dimethylpiperidin-1-yl)propoxy)phenyl)-N,N-dimethylpropan-1-amine oxalate], for which the melting point lay in the range of 140 to 142 °C. The Ki in series [1] (setting [7]) amounted to 30.3 ± 2.6 nM. For the same compound, the Ki in series [2] was 25.1 ± 2.8 nM.
For `CN(C)CCC(Oc1cccc2c1OCO2)c1cccc(OCCCN2CCOCC2)c1.O=C(O)C(=O)O` (stereo not shown) [Compound 11j, 3-(benzo[d][1,3]dioxol-4-yloxy)-N,N-dimethyl-3-(3-(3-morpholinopropoxy)phenyl)propan-1-amine oxalate], in that order: 95 to 98 °C, 465 ± 39.8 nM and 153 ± 12.7 nM.
For `CN(C)CCC(Oc1cccc2c1OCO2)c1ccc(OCCCN2CCC(Cl)CC2)cc1.O=C(O)C(=O)O` (stereo not shown) [Compound 11u, 3-(benzo[d][1,3]dioxol-4-yloxy)-3-(4-(3-(4-chloropiperidin-1-yl)propoxy)phenyl)-N,N-dimethylpropan-1-amine oxalate], in that order: 145 to 146 °C, 39.5 ± 4 nM and 50.2 ± 4.9 nM.
For `CCN(CC)CCCOc1ccc(C(CCN(C)C)Oc2cccc3c2OCO3)cc1.O=C(O)C(=O)O` (stereo not shown) [Compound 11m, 3-(benzo[d][1,3]dioxol-4-yloxy)-3-(4-(3-(diethylamino)propoxy)phenyl)-N,N-dimethylpropan-1-amine oxalate], in that order: 98 to 100 °C, 28.4 ± 11.3 nM and 85.2 ± 9.1 nM.
`CN(C)CCC(Oc1cccc2c1OCO2)c1ccc(OCCCN2CCC(C#N)CC2)cc1.O=C(O)C(=O)O` (stereo not shown) [Compound 11v, 1-(3-(4-(1-(benzo[d][1,3]dioxol-4-yloxy)-3-(dimethylamino)propyl)phenoxy)propyl)piperidine-4-carbonitrile oxalate] came in with a melting point of 148 to 151 °C. Further, the Ki in series [1] (setting [7]) came to 60.5 ± 5.7 nM. In addition, in series [2], the inhibitory constant (Ki) worked out at 48.6 ± 6.4 nM.

These data come from article PMC11870037 (Molecules, 2024).
